Measured values published in patent US12466832B2, “Monohydrate and crystalline forms of 6-[(3S,4S)-4-methyl-1-(pyrimidin-2-ylmethyl)pyrrolidin-3-yl]-3-tetrahydropyran-4-yl-7H-imidazo[1,5-a]pyrazin-8-one” (Cardurion Pharmaceuticals, Inc., priority 2018, dated 2025).

Experiments:
Assay type in all cases: physicochemical
[1] = Gravimetric Vapour Sorption (GVS); settings: 25° C., 0-90% RH
Method: Sorption isotherms were obtained using a SMS DVS Intrinsic moisture sorption analyzer, controlled by DVS Intrinsic Control software. The sample temperature was maintained at 25° C. by the instrument controls. The humidity was controlled by mixing streams of dry and wet nitrogen, with a total flow rate of 200 ml/min. The relative humidity was measured by a calibrated Rotronic probe (dynamic range of 1.0-100% RH), located near the sample. The weight change, (mass relaxation) of the sample as a function of % RH was constantly monitored by a microbalance (accuracy ±0.005 mg).
Typically, 5-30 mg of sample was placed in a tared mesh stainless steel basket under ambient conditions. The sample was loaded and unloaded at 40% RH and 25° C. (typical room conditions). A moisture sorption isotherm was performed as outlined below (2 scans per complete cycle). The standard isotherm was performed at 25° C. at 10% RH intervals over a 0-90% RH range. Typically, a double cycle (4 scans) was carried out. Data analysis was carried out within Microsoft Excel using the DVS Analysis Suite.
The sample was recovered after completion of the isotherm and re-analyzed by XRPD.

[2] = Drying investigation of the two hydrates (vacuum oven, XRPD and TGA)
Method: Procedure: MH1 and MH2 were placed in a vacuum oven at 50° C. and RT for 24 h. The samples were then analysed by TGA and XRPD immediately after removal and after 4 hours standing under ambient conditions.

[3] = Stability studies with competitive slurries of the two hydrates; settings: ambient conditions
Method: Procedure: Saturated solutions of the supplied MH 1 (J08343) were prepared in different solvents/systems (1 ml). The saturated solutions were then filtered and used for competitive slurry experiments.
MH1 and MH2 (ca. 15 mg each) were physically mixed before they were treated with the filtered saturated solutions (300 μL). The samples were stirred at 25° C. for 24 h then filtered, air dried and analysed by XRPD.
The same solvents were used as for samples in water activity experiments with additional IPA/heptane mixtures as this is the current crystallisation solvent. This procedure was also followed for IPA/heptane at 5 and 50° C. (3 days slurrying).
Further experiments were designed to increase the diversity of solvents/systems studied while still investigating the effect of water activity on the form obtained. This was with a view to define a solvent list for Phase 3 (Solvent Selection). Further saturated solutions were prepared as described in the procedure section using MH1 as supplied.

[4] = Variable temperature XRPD (VT XRPD)
Method: For variable temperature (VT) experiments the samples were prepared and analysed in an Anton Paar chromed sample holder. A heating/cooling rate of 10° C./min was used with a 2 min isothermal hold before the measurement started. The measurement parameters are as per the standard screening data collection method (detailed above). Measurements were taken at the following temperatures: 25, 50, 75, 100, 160, and 25° C. The sample was then reanalyzed by XRPD after 1 h to check for complete rehydration.
MH1 was analysed at 25, 50, 75, 100, 160 and 25° C. (10° C./min heating rate and a 2 min wait before the measurement started) on the Empyrean. The sample was then reanalysed by XRPD after 10 and 20 min to check for rehydration.
(§1) Procedure: A second batch of MH2 material was prepared using the same procedure. This sample was then analysed by VTXRPD and by XRPD under vacuum.

[5] = XRPD under vacuum
Method: For vacuum experiments the samples were prepared and analysed in an Anton Paar chromed sample holder. The measurement parameters are as per the standard screening data collection method (detailed above), at 25° C. with no vacuum (I2). A vacuum of around 50 mbar was then applied and the sample measured every 5 min until the anhydrate pattern was obtained for three consecutive measurements (to ensure complete dehydration, up to sample I8). The vacuum was then released and the sample analysed every 5 min for 6 measurements (until sample I22). The sample was then reanalyzed by XRPD after 1 h to check for complete rehydration.
MH1 was analysed at 25° C. with no vacuum. A vacuum of around 50 mbar was then applied and the sample measured every 5 min until the anhydrate pattern was obtained for three consecutive measurements (to ensure complete dehydration). The vacuum was then released and the sample analysed every 5 min for 6 measurements before the front of the sample stage was removed.
as §1

[6] = Compression studies

C[C@@H]1CN(Cc2ncccn2)C[C@H]1c1cn2c(C3CCOCC3)ncc2c(=O)[nH]1 [MH1, 6-[(3S,4S)-4-methyl-1-(pyrimidin-2-ylmethyl)pyrrolidin-3-yl]-3-tetrahydropyran-4-yl-7H-imidazo[1,5-a]pyrazin-8-one]
GVS Max uptake [1]: Max uptake of 4.7%, no hysteresis, large step
XRPD (T = 0, 50° C.) ([2]; vacuum oven 50° C. 24 h, immediately after removal): Matches MH1 and AH
TGA (T = 0, 50° C.) ([2]; vacuum oven 50° C. 24 h, immediately after removal, lost between 25 and 100° C.): 0.3% w/w lost between
TGA (T = 4 h, 50° C.) ([2]; vacuum oven 50° C. 24 h, then 4 hours ambient, lost between 25 and 100° C.): 2.7% w/w lost between
XRPD (T = 4 h, 50° C.) ([2]; vacuum oven 50° C. 24 h, then 4 hours at ambient conditions): Matches MH1
XRPD (T = 0, RT) ([2]; vacuum oven RT 24 h, immediately after removal): Matches MH1 and AH
TGA (T = 0, RT) ([2]; vacuum oven RT 24 h, immediately after removal, lost between 25 and 100° C.): 0.3% w/w lost between
TGA (T = 4 h, RT) ([2]; vacuum oven RT 24 h, then 4 hours ambient, lost between 25 and 100° C.): 1.8% w/w lost between
XRPD (T = 4 h, RT) ([2]; vacuum oven RT 24 h, then 4 hours at ambient conditions): Matches MH1
Relative stability of the forms [3]: most stable form at ambient conditions
TGA post VT XRPD mass loss [4]: 3.2%
Form by VT XRPD upon heating ([4]; 75° C.): fully anhydrous
Form by VT XRPD after cooling back ([4]; re-cooled to 25° C.): peaks corresponding to MH1 are present
TGA post vacuum XRPD mass loss [5]: 3.4%
Time to fully hydrated by XRPD after ambient air admitted ([5]; after vacuum released and front of sample stage taken off): 15 min
Time under vacuum to conversion to the anhydrate by XRPD ([5]; vacuum of around 50 mbar, 25° C.): 10 min
Compression studies, form by XRPD [6]: no conversion to the anhydrate
